What follows are molecules tested against T1, human FAAH (Homo sapiens, UniProt O00519) (assay: Inhibition of human FAAH (AMC arachidonoyl amide fluorescence assay)). Conditions: inhibitor preincubated 30 minutes at room temperature; 20 μM AMC arachidonoyl amide; 4 hours; read-out: Activity (Ki, inhibitors of human FAAH).
T1 construct: host or cells: COS-7 cells, transient transfection; 13,000 g membrane fraction solubilised in 1% Triton X-100
T1 sequence (O00519 1-579): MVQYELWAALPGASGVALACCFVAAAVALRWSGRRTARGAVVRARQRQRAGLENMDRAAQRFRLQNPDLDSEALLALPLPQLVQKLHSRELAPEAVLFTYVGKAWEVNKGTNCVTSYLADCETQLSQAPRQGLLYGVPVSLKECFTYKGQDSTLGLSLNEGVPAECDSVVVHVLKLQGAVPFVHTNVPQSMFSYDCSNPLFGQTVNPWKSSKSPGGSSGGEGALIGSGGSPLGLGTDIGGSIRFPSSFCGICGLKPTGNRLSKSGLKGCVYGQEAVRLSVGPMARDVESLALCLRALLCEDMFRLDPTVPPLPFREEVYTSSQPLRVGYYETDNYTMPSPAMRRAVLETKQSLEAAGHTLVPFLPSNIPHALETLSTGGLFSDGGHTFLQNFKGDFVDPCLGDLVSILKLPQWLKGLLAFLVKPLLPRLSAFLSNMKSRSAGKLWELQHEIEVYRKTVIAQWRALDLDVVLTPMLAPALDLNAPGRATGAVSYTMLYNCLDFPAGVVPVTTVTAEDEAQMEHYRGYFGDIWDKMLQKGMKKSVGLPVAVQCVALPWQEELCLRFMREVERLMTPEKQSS
Format: biochemical
How it was run: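 Solubilized membrane fraction from COS-7 cells transiently expressing human FAAH (0.05 mg/mL final) preincubated 30 min at room temperature with 3-fold serially diluted inhibitor, then reacted 4 h at room temperature with 20 μM AMC arachidonoyl amide. Stopped with α-ketoheterocycle; fluorescence read. Ki from single-site competitive fit, Km fixed at 12 μM.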

SMILES	Ki [nM]
FC(F)(F)c1cccc(OC2=NOC(c3ccc(Oc4ccccc4)cc3)C2)c1 (single isomer, unassigned) [I-26]	≥ 1000
CNC(=O)c1ccc([C@H]2CC(Br)=NO2)cc1 (racemic) [I-204]	100 to 1000
O=C(O)c1ccc(SC2=NOC(c3ccc(OC(F)(F)F)cc3)C2)cc1 (racemic) [I-251]	≥ 1000
N[S@SP3](=O)(=O)c1cccc(OC2=NOC(c3ccc(Oc4ccccc4)cc3)C2)c1 (racemic) [I-64]	≥ 1000
Fc1cc([C@H]2CC(Br)=NO2)ccc1OC(F)(F)F (racemic) [I-120]	≤ 100
O=S(=O)(c1ccc([C@H]2CC(Br)=NO2)cc1)N1CCCC1 (racemic) [I-211]	≤ 100
FC(F)(F)Oc1ccc(C2CC(Oc3ccc(-c4cnn[nH]4)nc3)=NO2)cc1 (racemic) [I-236]	≤ 100
FC(F)(F)Oc1ccc(C2CC(Oc3cccc(-c4nnco4)c3)=NO2)cc1 (racemic) [I-258]	≤ 100
Cn1cc(-c2ccc(OC3=NOC(C)(c4ccc(OC(F)(F)F)cc4)C3)cn2)cn1 (racemic) [I-240]	≤ 100
CN(C)S(=O)(=O)c1ccc([C@H]2CC(Oc3ccc(S(C)(=O)=O)nc3)=NO2)cc1 (racemic) [I-213]	≤ 100
CCCCOc1ccc([C@H]2CC(Oc3ccc(C(=O)OC)nc3)=NO2)cc1 (racemic) [I-137]	≤ 100
CCN(C1=NOC(c2ccc(OC(F)(F)F)cc2)C1)c1ccccc1 (racemic) [I-253]	≥ 1000
FC(F)(F)Oc1ccc(C2CC(Oc3cccc(-n4cnnc4)c3)=NO2)cc1 (racemic) [I-221]	≥ 1000
Cc1nnc(-c2cccc(OC3=NOC(c4ccc(Oc5ccccc5)cc4)C3)c2)o1 (racemic) [I-160]	≤ 100
FC(F)(F)Oc1ccc(C2CC(Oc3ccc(-c4cn[nH]c4)nc3)=NO2)cc1 (racemic) [I-165]	≥ 1000
CNS(=O)(=O)c1ccc([C@H]2CC(Br)=NO2)cc1 (racemic) [I-207]	≤ 100
CCNC(=O)c1ccc(OC2=NOC(C)(c3ccc(OC(F)(F)F)cc3)C2)cn1 (racemic) [I-115]	≤ 100
CCCCOc1ccc([C@H]2CC(Oc3cncnc3)=NO2)cc1 (racemic) [I-139]	≤ 100
O=C(O)CNC(=O)c1ccc(OC2=NOC(c3ccc(OC(F)(F)F)cc3)C2)cn1 (racemic) [I-106]	≤ 100
c1ccc(Oc2ccc(C3CC(Oc4cccnc4)=NO3)cc2)cc1 (single isomer, unassigned) [I-37]	≤ 100
NC(=O)c1cccc(-c2cncc(OC3=NOC(c4ccc(OC(F)(F)F)cc4)C3)c2)c1 (racemic) [I-73]	≤ 100
O=C(c1ccc([C@H]2CC(Br)=NO2)cc1)N1CCOCC1 (racemic) [I-202]	100 to 1000
Cn1nc(C(F)(F)F)cc1OC1=NOC(c2ccc(Oc3ccccc3)cc2)C1 (racemic) [I-257]	100 to 1000
COc1ncc(OC2=NOC(c3ccc(Oc4ccccc4)cc3)C2)cn1 (racemic) [I-66]	≤ 100
O=C(NCc1ccccc1)c1ccc([C@H]2CC(Br)=NO2)cc1 (racemic) [I-22]	100 to 1000
O=C(O)c1cccc(-c2ccc(OC3=NOC(c4ccc(OC(F)(F)F)cc4)C3)cn2)c1 (racemic) [I-85]	100 to 1000
CC1(c2ccc(OC(F)(F)F)cc2)CC(Oc2ccc(C(=O)O)nc2)=NO1 (racemic) [I-113]	≤ 100
COC(=O)c1ccc(OC2=NO[C@@H](c3ccc(OC(F)(F)F)c(F)c3)C2)cn1 (racemic) [I-122]	≤ 100
Clc1ccccc1C1CC(Br)=NO1 (single isomer, unassigned) [I-5]	100 to 1000

The next lines start with the values.

Ki [nM]	SMILES
≤ 100	CC(C)Oc1ccc([C@H]2CC(Oc3cncnc3)=NO2)cc1 (racemic) [I-141]
≤ 100	c1ccc(-c2ccc([C@H]3CC(Oc4cccnc4)=NO3)cc2)cc1 (racemic) [I-101]
≤ 100	O=C(O)c1ccc(OC2=NOC(c3ccc(Br)cc3)C2)cn1 (racemic) [I-150]
≤ 100	Fc1cccc(-c2ccc(C3CC(Oc4cncnc4)=NO3)c(F)c2)c1 (racemic) [I-119]
≤ 100	BrC1=NOC(CCCOc2ccccc2)C1 (single isomer, unassigned) [I-51]
≤ 100	COc1cncc(OC2=NOC(c3ccc(Oc4ccccc4)cc3)C2)c1 (racemic) [I-65]
≤ 100	BrC1=NO[C@@H](c2ccc(-c3ccccc3)cc2)C1 (racemic) [I-9]
≤ 100	Cn1nccc1-c1ccc(OC2=NOC(C)(c3ccc(OC(F)(F)F)cc3)C2)cn1 (racemic) [I-241]
≤ 100	FC(F)(F)Oc1ccc(C2CC(Oc3ccc(-c4nccs4)nc3)=NO2)cc1 (racemic) [I-162]
≤ 100	c1ccc(-c2ccc([C@H]3CC(Oc4cncnc4)=NO3)cc2)cc1 (racemic) [I-103]
≤ 100	CN(C)C(=O)c1ccc(OC2=NOC(c3ccc(Oc4ccccc4)cc3)C2)cn1 (racemic) [I-111]
≤ 100	O=C(O)c1cc(OC2=NOC(c3ccc(OC(F)(F)F)cc3)C2)ccn1 (racemic) [I-152]
≤ 100	CC1(c2ccc(OC(F)(F)F)cc2)CC(Oc2ccc(-c3ccoc3)nc2)=NO1 (racemic) [I-154]
≤ 100	O=C(O)CCc1ccc(OC2=NOC(c3ccc(Oc4ccccc4)cc3)C2)cn1 (racemic) [I-99]
≤ 100	BrC1=NOC(c2ccc(Oc3cccnc3)cc2)C1 (single isomer, unassigned) [I-12]
≤ 100	CCC1(c2ccc(Oc3ccccc3)cc2)CC(Br)=NO1 (racemic) [I-95]
≤ 100	O=C(OCc1ccccc1)c1ccc(C2CC(Br)=NO2)cc1 (single isomer, unassigned) [I-21]
≤ 100	O=C(c1ccc([C@H]2CC(Br)=NO2)cc1)N1CCCCC1 (racemic) [I-208]
